From ChEMBL document CHEMBL4052588, “Design of a Biased Potent Small Molecule Inhibitor of the Bromodomain and PHD Finger-Containing (BRPF) Proteins Suitable for Cellular and in Vivo Studies” (J Med Chem, 2017)

Key:
[1] = biological target: T1, Bromodomain and PHD finger-containing protein 3 (Homo sapiens, UniProt Q9ULD4); assay: Inhibition of human BRPF3 expressed in Escherichia coli BL21 after 1 hr by BROMOscan assay
T1 sequence (Q9ULD4 whole entry): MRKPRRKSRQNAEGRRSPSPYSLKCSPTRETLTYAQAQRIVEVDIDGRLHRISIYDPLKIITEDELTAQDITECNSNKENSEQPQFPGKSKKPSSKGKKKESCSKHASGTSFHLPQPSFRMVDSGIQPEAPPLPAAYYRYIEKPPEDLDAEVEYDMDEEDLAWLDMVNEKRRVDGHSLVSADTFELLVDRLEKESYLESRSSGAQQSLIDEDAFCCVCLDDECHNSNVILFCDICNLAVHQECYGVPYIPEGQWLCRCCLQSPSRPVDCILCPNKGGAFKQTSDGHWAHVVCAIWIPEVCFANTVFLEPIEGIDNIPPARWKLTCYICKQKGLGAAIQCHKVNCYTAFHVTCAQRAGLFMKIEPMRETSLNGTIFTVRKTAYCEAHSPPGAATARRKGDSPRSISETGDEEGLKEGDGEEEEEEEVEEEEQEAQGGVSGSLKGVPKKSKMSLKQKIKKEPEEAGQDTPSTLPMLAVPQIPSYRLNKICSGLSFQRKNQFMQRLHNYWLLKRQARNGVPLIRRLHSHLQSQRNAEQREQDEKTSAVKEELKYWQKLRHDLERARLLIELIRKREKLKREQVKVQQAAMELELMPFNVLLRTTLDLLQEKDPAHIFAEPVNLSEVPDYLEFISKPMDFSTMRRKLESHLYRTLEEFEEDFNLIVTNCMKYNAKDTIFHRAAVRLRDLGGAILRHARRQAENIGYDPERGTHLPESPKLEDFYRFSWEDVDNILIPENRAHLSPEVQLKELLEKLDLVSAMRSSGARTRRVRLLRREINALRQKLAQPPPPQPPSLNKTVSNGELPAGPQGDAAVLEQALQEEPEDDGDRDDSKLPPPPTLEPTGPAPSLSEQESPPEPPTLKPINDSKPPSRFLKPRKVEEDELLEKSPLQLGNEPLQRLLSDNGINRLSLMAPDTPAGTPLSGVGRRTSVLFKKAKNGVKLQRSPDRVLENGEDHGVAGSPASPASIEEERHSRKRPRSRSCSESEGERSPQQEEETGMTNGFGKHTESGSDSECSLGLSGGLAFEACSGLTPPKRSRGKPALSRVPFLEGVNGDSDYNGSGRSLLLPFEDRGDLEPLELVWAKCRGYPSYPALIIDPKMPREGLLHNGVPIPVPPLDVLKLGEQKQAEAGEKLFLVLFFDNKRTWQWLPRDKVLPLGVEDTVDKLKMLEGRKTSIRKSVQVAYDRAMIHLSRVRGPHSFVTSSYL

[2] = biological target: ATPase family AAA domain-containing protein 2B (Homo sapiens, UniProt Q9ULI0); assay: Inhibition of human ATAD2B expressed in Escherichia coli BL21 after 1 hr by BROMOscan assay
Chain of ATPase family AAA domain-containing protein 2B (Q9ULI0 whole entry, the tested form may be a part): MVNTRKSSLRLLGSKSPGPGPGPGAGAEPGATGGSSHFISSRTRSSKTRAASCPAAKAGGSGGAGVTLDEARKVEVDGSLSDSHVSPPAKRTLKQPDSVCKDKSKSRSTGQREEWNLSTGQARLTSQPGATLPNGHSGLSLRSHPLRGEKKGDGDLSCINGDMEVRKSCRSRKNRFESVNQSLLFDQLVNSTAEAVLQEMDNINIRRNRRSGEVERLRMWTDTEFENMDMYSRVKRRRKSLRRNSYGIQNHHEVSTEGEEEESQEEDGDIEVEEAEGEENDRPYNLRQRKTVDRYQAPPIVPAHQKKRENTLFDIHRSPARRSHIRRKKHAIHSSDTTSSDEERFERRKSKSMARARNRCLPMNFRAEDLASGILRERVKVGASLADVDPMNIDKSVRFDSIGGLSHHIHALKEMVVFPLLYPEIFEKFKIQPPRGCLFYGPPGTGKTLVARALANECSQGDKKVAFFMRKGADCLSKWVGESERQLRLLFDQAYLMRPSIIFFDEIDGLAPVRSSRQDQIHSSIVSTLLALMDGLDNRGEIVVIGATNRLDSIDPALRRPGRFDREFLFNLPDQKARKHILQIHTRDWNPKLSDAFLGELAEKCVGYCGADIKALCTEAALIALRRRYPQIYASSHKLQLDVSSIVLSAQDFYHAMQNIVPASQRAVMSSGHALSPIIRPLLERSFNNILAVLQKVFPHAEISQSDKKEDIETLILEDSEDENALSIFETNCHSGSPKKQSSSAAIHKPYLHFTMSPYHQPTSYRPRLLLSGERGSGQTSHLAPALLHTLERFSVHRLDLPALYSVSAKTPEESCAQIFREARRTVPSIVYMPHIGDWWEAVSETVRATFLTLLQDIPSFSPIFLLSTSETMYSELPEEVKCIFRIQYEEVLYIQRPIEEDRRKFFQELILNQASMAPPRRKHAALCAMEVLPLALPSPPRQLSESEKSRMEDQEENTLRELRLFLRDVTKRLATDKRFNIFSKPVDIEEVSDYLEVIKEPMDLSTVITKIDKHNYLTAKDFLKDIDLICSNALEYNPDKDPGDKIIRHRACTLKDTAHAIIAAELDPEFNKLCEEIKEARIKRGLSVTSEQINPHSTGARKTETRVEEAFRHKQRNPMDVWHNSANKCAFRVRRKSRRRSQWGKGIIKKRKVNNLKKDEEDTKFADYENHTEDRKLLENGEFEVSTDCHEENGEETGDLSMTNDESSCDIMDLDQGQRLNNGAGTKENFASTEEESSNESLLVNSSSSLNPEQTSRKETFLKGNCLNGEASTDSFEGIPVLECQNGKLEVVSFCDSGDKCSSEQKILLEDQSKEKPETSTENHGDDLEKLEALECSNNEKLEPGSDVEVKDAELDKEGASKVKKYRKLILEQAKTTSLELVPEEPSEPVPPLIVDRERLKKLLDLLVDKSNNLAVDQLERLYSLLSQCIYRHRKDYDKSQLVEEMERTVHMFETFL

[3] = biological target: T2, Bromodomain-containing protein 9 (Homo sapiens, UniProt Q9H8M2); assay: Inhibition of human His tagged BRD9 incubated for 30 mins followed by addition of biotinylated peptide and further incubation for 30 mins measured by AlphaScreen assay
T2 sequence (Q9H8M2 whole entry): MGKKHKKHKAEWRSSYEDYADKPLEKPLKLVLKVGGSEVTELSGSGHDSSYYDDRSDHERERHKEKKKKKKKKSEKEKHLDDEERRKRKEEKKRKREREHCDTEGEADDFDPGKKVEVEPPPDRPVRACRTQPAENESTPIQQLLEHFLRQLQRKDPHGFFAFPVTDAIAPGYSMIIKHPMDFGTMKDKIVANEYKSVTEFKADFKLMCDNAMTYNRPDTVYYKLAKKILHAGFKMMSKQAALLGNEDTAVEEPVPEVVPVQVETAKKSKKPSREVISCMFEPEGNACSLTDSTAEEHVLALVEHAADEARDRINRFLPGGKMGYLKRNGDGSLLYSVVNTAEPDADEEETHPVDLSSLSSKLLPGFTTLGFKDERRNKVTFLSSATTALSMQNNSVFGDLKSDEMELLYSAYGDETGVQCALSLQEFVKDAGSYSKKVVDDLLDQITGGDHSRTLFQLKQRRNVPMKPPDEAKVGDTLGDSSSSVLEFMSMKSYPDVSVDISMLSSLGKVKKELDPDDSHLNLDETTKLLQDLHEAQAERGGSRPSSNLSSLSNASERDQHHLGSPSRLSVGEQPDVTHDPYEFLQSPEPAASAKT

[4] = biological target: Bromodomain-containing protein 4 (Homo sapiens, UniProt O60885)
[5] = biological target: T3, Bromodomain and PHD finger-containing protein 3 (Homo sapiens) (UniProt Q9ULD4)
T3 sequence (whole entry): T1 sequence (Q9ULD4 whole entry)

[6] = biological target: T4, Bromodomain-containing protein 9 (Homo sapiens) (UniProt Q9H8M2)
T4 sequence (whole entry): T2 sequence (Q9H8M2 whole entry)

| IC50 [1] | IC50 [2] | IC50 [3] | ΔTm [4] | ΔTm [5] | ΔTm [6] | Compound |
| --- | --- | --- | --- | --- | --- | --- |
| 9.3 µM | – | – | – | – | – | COc1cc2c(cc1NS(=O)(=O)c1ccc(C#N)cc1)c(C)cc(=O)n2C |
| > 100 µM | > 100 µM | > 20 µM | – | – | – | CCc1cc2cc(NS(=O)(=O)c3ccc(C#N)cc3)ccc2n(CC)c1=O |
| – | – | – | 0.4 °C | 2.4 °C | 2.2 °C | Cc1cc(C#N)ccc1S(=O)(=O)Nc1ccc2c(ccc(=O)n2C)c1 |
| 12 µM | – | – | – | – | – | COc1ccccc1C(=O)Nc1cc2cc(C)c(=O)n(C)c2cc1N1CCCC1 |
| 0.26 µM | > 100 µM | 1.1 µM | 0.95 °C | 4.5 °C | 3.5 °C | Cc1cc2cc(NS(=O)(=O)c3ccc(C#N)cc3)ccc2n(C)c1=O |

| Compound | IC50 [1] | IC50 [2] | IC50 [3] | ΔTm [4] | ΔTm [5] | ΔTm [6] |
| --- | --- | --- | --- | --- | --- | --- |
| Cn1c(=O)ccc2cc(NS(=O)(=O)c3ccc(C#N)c(Cl)c3)ccc21 | 2.3 µM | – | – | – | – | – |
